Assay results: US20140271667A1, “Methods and Compositions for Neoadjuvant Therapy” (The Wistar Institute of Anatomy and Biology, priority 2013, published 2014)

Experiments:
LN229 spheroids [1] = test: Tumor cell invasion in 3D organotypic spheroids embedded in collagen; assay type: cell-based, human; conditions: LN229 spheroids in collagen matrix; Gamitrinib 1.25-2.5 μM; 72 h
Experimental: (§1) For cell migration experiments using a wound closure assay, confluent monolayers of MRC-5 cells were incubated with vehicle or Gamitrinib (5-10 μM), and wounded using a 10 μl pipette tip. Three micrographs/well were obtained at time=0, 16 and 24 h after wounding, and the percentage of wound closure was normalized to the maximum initial area for each well. For analysis of tumor cell invasion in 3D organotypic spheroids, tumor cells (5×10^4) were seeded onto 96-well plates coated with 1.5% agar (Difco Noble Agar) in PBS, pH 7.4. Spheroids were allowed to form over a 72 h period and then embedded in […] of bovine collagen type I (Organogenesis) in 24-well plates. Spheroids were overlaid with 1 ml of growth medium, treated with various concentrations of Gamitrinib for 72 h, and analyzed for changes in maximum invasion distance and invasion area. Quantification of live vs. dead cells under the various conditions tested was performed by staining the spheroids with calcein-AM (live, bright cluster) and Topro-3 (dead, dark spots) (Invitrogen) for 2 h. Samples were imaged using a Prairie Ultima II 2-photon microscope (Prairie Technologies, Inc, Middleton, Wis.), and stacks of 100 slices were generated in 2 channels. 3-D reconstruction of the labeled spheroids and analysis of cell staining was carried out using ImagePro Plus 3D software (Media Cybernetics, Silver Spring Md.).

tumor cells = conditions: previous data (23); cited from earlier work
LN229 cells = test: ATP measurement (luciferin-luciferase); assay type: cell-based, human; conditions: Gamitrinib 5-10 μM, concentration-dependent
Experimental: Intracellular ATP concentrations were measured by the luciferin-luciferase method using an ATP measuring kit (Biochain). The ATP concentration in each extract was determined in a microplate luminometer (Beckman Coulter) against standard ATP solutions used as reference.

[2] = tested on: normal human MRC-5 lung fibroblasts; test: Wound closure assay, normal fibroblasts; assay type: cell-based; conditions: Gamitrinib 5-10 μM, 16 or 24 h
Experimental: as §1

ULK1 = test: Western blotting, ULK1 phosphorylation and level; assay type: cell-based, human; conditions: PC3
Experimental: (§2) Protein lysates were prepared in RIPA buffer containing 150 mM NaCl, 1.0% Triton X-100, 0.5% sodium deoxycholate, 0.1% SDS, 50 mM Tris, pH 8.0, in the presence of EDTA-free protease inhibitor cocktail (Roche) and phosphatase inhibitor cocktail 2 and 3 (Sigma Aldrich). Equal amounts of protein lysates were separated by SDS gel electrophoresis, transferred to PVDF membranes and incubated with primary antibodies of various specificities. Protein bands were detected by chemiluminescence, as described (21).

PC3 cells [3] = test: Wound closure assay, tumor cells; assay type: cell-based, human; conditions: Gamitrinib 5 μM, 16 and 24 h
AMPK = test: Western blotting, AMPK and ACC phosphorylation; assay type: cell-based, human
Experimental: as §2

[4] = tested on: p21-activated kinases, Pak-1,2; test: Western blotting, Pak phosphorylation; assay type: cell-based, human; conditions: Gamitrinib 5 μM
Experimental: as §2

Rac1 and Cdc42 = test: Rac1 and Cdc42-GTP pull-down assays; assay type: cell-based, human; conditions: serum-starved A549 cells stimulated with EGF or FBS; Gamitrinib 5 μM
Experimental: The activation of Rho family small GTPases, Rac1 or Cdc42 was examined in pull-down assays using the p21-binding domain (PBD, amino acids 70-117) of the p21-activated kinase-1 (Pak1). Briefly, a pGEX TK-Pak1 PBD cDNA (Addgene, Cat. no. #12217) was purified, transformed into BL21 E. coli competent cells (Stratagene), and expressed as recombinant GST fusion protein after induction with 1 mM IPTG for 4 h at 34° C. Cells were suspended in PBS, pH 7.2, in the presence of protease inhibitors (SIGMA), and broken by sonication in 1% Triton X-100 for 30 min at 4° C. Soluble proteins were isolated by chromatography on glutathione Sepharose 4B (GS4B, GE Healthcare), eluted in 3 consecutive steps in buffer containing 10 mM GSH, 50 mM Tris HCl, pH 8.0, and further desalted using Amicon Ultra 4/10K columns (Millipore), for a total of 3 buffer changes to PBS, pH 7.2. The protein was diluted in glycerol, quantified by absorbance at 280 nm, and stored at −80° C. until use. The activity of each batch of recombinant protein was assessed by incubating aliquots of the cell lysate with non-hydrolyzable GTPγS at 0.1 mM (maximum binding) or 1 mM GDP (negative control) in low Mg2+ buffer at 30° C. followed by pull-down (54). […]

PC3 cells [5] = test: Transwell cell migration; assay type: cell-based, human; conditions: Gamitrinib 5 μM, 17-AAG 5 μM, CCCP 12.5 μM, 2-DG 25 mM, rapamycin 0.1 μM, 6 h
Experimental: Various tumor cell types were treated as indicated in each experiment, suspended in 0.1% BSA/DMEM and seeded (1.6−3.2×10^3 cells/mm2, depending on the cell type) in the upper compartment of […] pore diameter BD transwells (BD). NIH3T3 conditioned medium was placed in the lower compartment as a chemoattractant. After 6-18 h incubations at 37° C., the transwell membranes were recovered and cells on the upper side (non-migratory) were wiped off the surface. Cells on the lower side of the membrane were fixed in methanol, rinsed in water and mounted on glass slides with Vectashield medium containing DAPI (Vector Laboratories). Migrated cells on each membrane were counted by fluorescence microscopy in 5 different fields. For cell invasion assays, transwell membranes were coated with Matrigel and processed as described above.

LN229 spheroids [6] = test: Spheroid live/dead staining (calcein-AM/Topro-3), 2-photon microscopy; assay type: cell-based, human
Experimental: as §1

Gamitrinib
invasive length and invasive areas (LN229 spheroids [1]): nearly complete suppression | tumor cell invasion in organotypic spheroids (LN229 spheroids [1]): blocked tumor cell invasion | O2 consumption in tumor cells (tumor cells): inhibited O2 consumption | ATP production in tumor cells (LN229 cells): inhibited ATP production | migration of normal human fibroblasts in wound closure assay [2]: did not affect migration | ULK1 phosphorylation on Ser555 (ULK1; Gamitrinib 5 μM (within 1-2 h), metformin 5 mM 6 h, 17-AAG 5 μM): phosphorylation of ULK1 on Ser555 | ULK1 phosphorylation on Ser757 (ULK1; Gamitrinib 5 μM, metformin 5 mM 6 h, 17-AAG 5 μM): decreased phosphorylation on Ser757 | total level of ULK1 (ULK1; time points of the Western blot experiment): not affected | tumor cell migration in wound closure assay (PC3 cells [3]): inhibited tumor cell migration | AMPK phosphorylation during nutrient deprivation (AMPK; LN229, Gamitrinib 5 μM, with or without glucose): increased AMPK phosphorylation | AMPK and ACC phosphorylation (AMPK; PC3, Gamitrinib 5 μM time course, metformin 5 mM 6 h, 17-AAG 5 μM time course): induced early phosphorylation | Pak-1,2 phosphorylation on Ser199, Ser144 and Ser20 [4]: inhibited the phosphorylation | activation of Rac1 and Cdc42 (GTP-bound) (Rac1 and Cdc42): impaired | tumor cell migration (PC3 cells [5]): suppressed | overall cell viability in a 3-D microenvironment (LN229 spheroids [6]): not affected
